Reference: ChEMBL document CHEMBL1201862, “PubChem BioAssay data set” (2004)
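Cultured in 96-well plates, cells were exposed to test compound for 48 hours across five concentrations. The concentration for 50% growth inhibition is given as GI50.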 The source made the active and inactive calls. Cut-off read from the data, not from the text of the source: active = GI50 up to about 1.1 µM and inactive = higher.

Tests used:
Assay in all cases: DTP human tumour cell line panel, 48 h
[1] = tested on: A498
[2] = tested on: ACHN
[3] = tested on: CAKI-1
[4] = tested on: DMS-273
[5] = tested on: HCC 2998
[6] = tested on: HOP-62
[7] = tested on: K562
[8] = tested on: Malme-3M
[9] = tested on: NCI-H23
[10] = tested on: OVCAR-5
[11] = tested on: SF-268
[12] = tested on: SF-539
[13] = tested on: SNB-75
[14] = tested on: SR
[15] = tested on: SW-620
[16] = tested on: Hs-578T
[17] = tested on: PC-3

Measured: GI50

O=C(/C=C/c1ccccc1)NC1C=Nc2ccc(Cl)cc2NC1=O (stereo not given)
inactive: [1] 21.7 µM | [2] 24.1 µM | [3] 22.6 µM | [4] 18.2 µM | [5] 21.2 µM | [6] 47.9 µM | [7] 9.42 µM | [8] 26.9 µM | [9] 27.5 µM | [10] 44.5 µM | [11] 36.2 µM | [12] 27.2 µM | [13] 15.6 µM | [14] 7.01 µM | [15] 7.13 µM

O=C(/C=C\c1cccc2ccccc12)c1cccc2ccccc12
inactive: [1] 17.2 µM | [2] 11.6 µM | [3] 8.07 µM | [4] 9.08 µM | [5] 13.1 µM | [6] 20.7 µM | [7] 4.92 µM | [8] 15.9 µM | [9] 5.93 µM | [10] > 10 µM | [12] 14.3 µM | [13] 5.37 µM | [14] 3.25 µM | [15] 3.37 µM

CN(C)CC/C(=N\Nc1ccc([N+](=O)[O-])cc1)c1ccccc1
inactive: [1] 13.2 µM | [2] 2.61 µM | [4] 10.3 µM | [6] 14.2 µM | [7] 3.48 µM | [8] 19.4 µM | [9] 13.3 µM | [10] 15 µM | [11] 7.94 µM | [12] 7.28 µM | [13] 4.5 µM | [14] 3.5 µM | [15] 13.4 µM

O=P(Oc1ccc2ccccc2c1)(N1CC1)N1CC1
inactive: [1] 20.3 µM | [2] 2.61 µM | [4] 6.21 µM | [5] 88.1 µM | [7] 37.2 µM | [8] 10.7 µM | [9] 4.43 µM | [10] 34 µM | [11] 2.15 µM | [12] 17.6 µM | [14] 3.13 µM | [15] > 100 µM

O=C1C2=C(C(c3ccccc3)=C1c1ccccc1)c1ccccc1C1(c3ccccc3)C2=C(O)C(c2ccccc2)=C1c1ccccc1 (stereo not given)
inactive: [1] > 100 µM | [2] > 100 µM | [3] > 100 µM | [4] > 100 µM | [5] > 100 µM | [6] > 100 µM | [8] > 100 µM | [9] > 100 µM | [10] > 100 µM | [11] > 100 µM | [12] > 100 µM | [13] > 100 µM | [14] > 100 µM | [15] > 100 µM

O=C1Oc2cc3c(c4cccc1c24)OCN(c1ccc(Cl)cc1)C3
inactive: [1] > 100 µM | [2] 3.13 µM | [3] 38.8 µM | [5] 27.4 µM | [6] 4.32 µM | [8] 26.4 µM | [9] 18.8 µM | [10] > 35.8 µM | [11] 23.9 µM | [12] 4.46 µM | [13] > 63.7 µM | [14] 8.79 µM | [15] 7.4 µM
active: [4] 0.423 µM | [7] 0.923 µM

Cc1c(C(=O)C/C(=N/NC(=O)c2ccccc2)C(=O)Nc2ccc(Cl)cc2)[n+]([O-])c2ccccc2[n+]1[O-]
inactive: [1] > 100 µM | [2] > 100 µM | [3] 82.4 µM | [4] 75.2 µM | [6] 90.8 µM | [7] 69 µM | [8] > 100 µM | [9] 38.7 µM | [10] 79.3 µM | [11] > 100 µM | [12] > 100 µM | [13] > 100 µM | [14] 63.8 µM | [15] 46.2 µM

CCN(CC)CCNC(=O)c1nn(C)c(=S)[nH]c1=S
inactive: [2] > 100 µM | [3] > 100 µM | [4] > 100 µM | [5] > 100 µM | [6] > 100 µM | [7] > 100 µM | [8] > 100 µM | [9] > 100 µM | [10] > 100 µM | [12] > 100 µM | [13] > 100 µM | [14] > 100 µM | [15] > 100 µM

CCOC(OCC)C(CC)[Se]c1ccccc1[N+](=O)[O-] (stereo not given)
active: [4] 1.01 µM | [14] 0.593 µM
inactive: [1] 2.17 µM | [2] 11.3 µM | [3] 2.75 µM | [5] 1.56 µM | [6] 3.08 µM | [16] 3.18 µM | [7] 1.93 µM | [8] 7.28 µM | [9] 3.03 µM | [10] 6.35 µM | [17] 3.27 µM | [11] 8.04 µM | [12] 2.02 µM | [13] 3.45 µM | [15] 2.5 µM

O=c1cc2n(c(=O)[nH]1)C1OC(C(O)C1O)[C@@H]2CCO (stereo not given in full)
inactive: [1] > 100 µM | [2] > 100 µM | [3] > 100 µM | [4] > 100 µM | [6] > 100 µM | [7] > 100 µM | [8] > 100 µM | [9] > 100 µM | [10] > 100 µM | [11] > 100 µM | [12] > 100 µM | [14] > 100 µM | [15] > 100 µM

ClCCCN1CCCCC1CCl (stereo not given)
inactive: [1] > 100 µM | [2] 48.6 µM | [3] 26.7 µM | [4] 62.2 µM | [5] > 100 µM | [6] 90.8 µM | [7] > 100 µM | [8] > 100 µM | [9] 65.3 µM | [10] > 100 µM | [11] 53.2 µM | [12] > 100 µM | [13] 68.4 µM | [14] 24.8 µM | [15] > 100 µM

CC[n+]1c(/C=C/c2ccc(N(CCCl)CCCl)cc2)ccc2cc(I)ccc21
inactive: [1] 2.51 µM | [2] 2.71 µM | [3] 2 µM | [5] 1.24 µM | [6] 1.51 µM | [9] 1.23 µM | [10] 1.96 µM | [11] 1.78 µM
active: [4] 0.525 µM | [7] 0.335 µM | [8] 0.6 µM | [12] 0.979 µM | [13] 0.394 µM | [14] 0.659 µM | [15] 0.916 µM

CC(O)C1OC(n2ccc(=O)[nH]c2=O)CC1n1cncn1 (stereo not given)
inactive: [1] > 100 µM | [2] > 100 µM | [3] > 100 µM | [4] > 100 µM | [5] > 100 µM | [6] > 100 µM | [7] > 100 µM | [8] > 100 µM | [9] > 100 µM | [10] > 100 µM | [11] > 100 µM | [14] > 100 µM | [15] > 100 µM

CCCc1c(C(=O)OCC)[nH]c(-c2ccc(-c3[nH]c(C(=O)OCC)c(CCC)c3C(=O)OCC)s2)c1C(=O)OCC
inactive: [1] 43.9 µM | [2] 34.8 µM | [3] 39.7 µM | [4] 30.7 µM | [5] 20.6 µM | [7] 79.4 µM | [8] 39.5 µM | [9] 28.2 µM | [10] 86.3 µM | [11] 26.9 µM | [12] 41 µM | [13] 11.8 µM | [14] 7.26 µM | [15] > 100 µM

COC1=C(OC)C(=O)c2cc(SC)c(=O)c(SC)cc2C1=O
inactive: [1] 24.5 µM | [2] 12.8 µM | [3] 72.4 µM | [4] 25.5 µM | [5] > 100 µM | [6] 15 µM | [7] 15.9 µM | [9] 5.75 µM | [11] 12.8 µM | [12] 12.1 µM | [13] 13.6 µM | [14] 4.33 µM | [15] 33.5 µM
